Results: ChEMBL document CHEMBL1201862, “PubChem BioAssay data set” (2004)
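Method: 48-hour compound exposure of cells in 96-well plates, five concentrations, linear interpolation of endpoints. GI50 = concentration required for 50% inhibition of growth.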 Active and inactive are the calls of the source. No stated cut-off is given here; in the data, active = GI50 up to about 1.1 µM and inactive = higher.

Columns and labels:
Assay in all cases: NCI-60 cell line screen, 48 h
ACHN = system: ACHN
SW-620 = system: SW-620
OVCAR-8 = system: OVCAR-8
MOLT-4 = system: MOLT-4
786-0 = system: 786-0
EKVX = system: EKVX
OVCAR-4 = system: OVCAR-4
T47D = system: T47D
SN12C = system: SN12C
HCC 2998 = system: HCC 2998
IGROV-1 = system: IGROV-1
A549 = system: A549
NCI/ADR-RES = system: NCI/ADR-RES
MDA-MB-435 = system: MDA-MB-435
LOX IMVI = system: LOX IMVI
CAKI-1 = system: CAKI-1
U-251 = system: U-251
SF-539 = system: SF-539
HCT-116 = system: HCT-116
SK-MEL-2 = system: SK-MEL-2

Row | Structure (SMILES) | GI50 (ACHN) | GI50 (SW-620) | GI50 (OVCAR-8) | GI50 (MOLT-4) | GI50 (786-0) | GI50 (EKVX) | GI50 (OVCAR-4) | GI50 (T47D) | GI50 (SN12C) | GI50 (HCC 2998) | GI50 (IGROV-1) | GI50 (A549) | GI50 (NCI/ADR-RES) | GI50 (MDA-MB-435) | GI50 (LOX IMVI) | GI50 (CAKI-1) | GI50 (U-251) | GI50 (SF-539) | GI50 (HCT-116) | GI50 (SK-MEL-2)
1 | Cn1c(=O)c2c(nc(N)n2C2OC(CO)C(O)C2O)n(C)c1=O (stereo unspecified) | > 100 µM (inactive) | > 100 µM (inactive) | > 100 µM (inactive) | > 100 µM (inactive) | > 100 µM (inactive) | > 100 µM (inactive) | > 100 µM (inactive) | > 100 µM (inactive) | > 100 µM (inactive) | > 100 µM (inactive) | > 100 µM (inactive) | > 100 µM (inactive) | > 100 µM (inactive) | > 100 µM (inactive) | > 100 µM (inactive) | > 100 µM (inactive) | > 100 µM (inactive) | > 100 µM (inactive) | > 100 µM (inactive) | –
2 | Nc1c2ccccc2nc2ccc3c(=O)cc(-c4ccccc4)oc3c12 | 1.12 µM (active) | 0.327 µM (active) | 0.611 µM (active) | 0.435 µM (active) | 0.436 µM (active) | 1.34 µM (inactive) | 0.426 µM (active) | 1.17 µM (inactive) | 0.979 µM (active) | 0.492 µM (active) | 1.12 µM (inactive) | 1.4 µM (inactive) | 1.35 µM (inactive) | 1.27 µM (inactive) | 0.406 µM (active) | 1.33 µM (inactive) | 0.531 µM (active) | 1.33 µM (inactive) | 0.299 µM (active) | 1.96 µM (inactive)
3 | O=C(NNC(=S)Nc1ccccc1)c1ccccc1Nc1ccccc1C(=O)NNC(=S)Nc1ccccc1 | 31.2 µM (inactive) | 40.9 µM (inactive) | 20 µM (inactive) | 29.6 µM (inactive) | 13.8 µM (inactive) | 21.1 µM (inactive) | 26.7 µM (inactive) | 27.7 µM (inactive) | 19.6 µM (inactive) | 16.9 µM (inactive) | 8.24 µM (inactive) | 27.2 µM (inactive) | 87.3 µM (inactive) | 20.9 µM (inactive) | 12.9 µM (inactive) | 48.2 µM (inactive) | 19.5 µM (inactive) | 24.1 µM (inactive) | 17.7 µM (inactive) | 19.6 µM (inactive)
4 | CC1Cc2cc(O)ccc2C2[C@@H]1C1CC[C@H](O)[C@@]1(C)C[C@@H]2O[N+](=O)[O-] (stereo partly specified) | 14.7 µM (inactive) | 6.76 µM (inactive) | 16.8 µM (inactive) | 7.48 µM (inactive) | 8.26 µM (inactive) | 21.4 µM (inactive) | 26.7 µM (inactive) | 9.55 µM (inactive) | 14.7 µM (inactive) | 5.48 µM (inactive) | 25.2 µM (inactive) | 11 µM (inactive) | 3.82 µM (inactive) | 2.52 µM (inactive) | 9.2 µM (inactive) | 10.2 µM (inactive) | 3.99 µM (inactive) | 3.79 µM (inactive) | 5.18 µM (inactive) | 5.46 µM (inactive)
5 | COC(=O)CSSCc1ccc([N+](=O)[O-])cc1 | 16.3 µM (inactive) | 12.2 µM (inactive) | 28.6 µM (inactive) | 3.93 µM (inactive) | 19 µM (inactive) | 28.2 µM (inactive) | – | 24.1 µM (inactive) | 14.8 µM (inactive) | 21.4 µM (inactive) | 3.08 µM (inactive) | 25.5 µM (inactive) | 20.9 µM (inactive) | 13.9 µM (inactive) | 12.8 µM (inactive) | 2.23 µM (inactive) | 12.3 µM (inactive) | 18.2 µM (inactive) | 12.2 µM (inactive) | 18.1 µM (inactive)
6 | NC1CCC(N(CC(=O)O)CC(=O)O)C(N(CC(=O)O)CC(=O)O)C1 (stereo unspecified) | > 100 µM (inactive) | > 100 µM (inactive) | > 100 µM (inactive) | > 100 µM (inactive) | > 10 µM (inactive) | – | > 100 µM (inactive) | > 100 µM (inactive) | > 100 µM (inactive) | > 100 µM (inactive) | > 100 µM (inactive) | > 100 µM (inactive) | > 100 µM (inactive) | > 100 µM (inactive) | > 100 µM (inactive) | > 100 µM (inactive) | > 100 µM (inactive) | > 100 µM (inactive) | > 100 µM (inactive) | > 100 µM (inactive)
7 | COc1ccc(C(=O)/C=C/c2cc(O)c(O)c(F)c2F)c(OC)c1 | 20.8 µM (inactive) | 15.4 µM (inactive) | 20.8 µM (inactive) | – | 8 µM (inactive) | 25 µM (inactive) | 19 µM (inactive) | 15.2 µM (inactive) | 10.3 µM (inactive) | 4.75 µM (inactive) | 19.8 µM (inactive) | 16.1 µM (inactive) | 10.1 µM (inactive) | 17.9 µM (inactive) | 13.6 µM (inactive) | 25.6 µM (inactive) | 11.1 µM (inactive) | 16.7 µM (inactive) | 6.95 µM (inactive) | 14.4 µM (inactive)
